Results on 3 molecules are retold here after patent publication US12465637B2, “Compositions and methods for modulation of antibody activity” (Institute for Cancer Research, priority 2019, dated 2025).

As a reminder, the EC50 is the concentration at which the effect is half-maximal.

Test [1] concerns 4D5Flu triple mutant (VLF98G/VHV37A/VHW110G). In words: Fluorescein fluorescence quenching, effector (JK43/analog) rescue of triple mutant. The class given is biochemical. As to conditions: effector titration; 500 nM triple mutant, 10 nM fluorescein, 1% DMSO. On the procedure: For the protein titration experiment, samples were prepared by titrating varying concentrations of protein (WT or triple mutant) into PBS containing a final concentration of 10 nM fluorescein and 1% DMSO, with or without 100 μM JK43. For the JK43 titration experiment, samples were prepared by titrating varying concentrations of JK43 into PBS with a final concentration of 10 nM fluorescein, 1% DMSO and 500 nM protein (WT or triple mutant). For the SAR experiment, samples were prepared by adding 10 μM of JK43 analogs into PBS with a final concentration of 10 nM fluorescein, 1% DMSO and 500 nM triple mutant.
Fluorescence quenching experiments were carried out in a SpectraMax® i3x Multi-Mode Microplate Reader (Molecular Devices), using a Costar 96-well black round bottom plates, 200 μL reaction volume, excitation wavelength of 475 nm and emission wavelength of 525 nm, at a temperature of 27° C. Blank measurements containing all sample components except fluorescein were subtracted to remove background. All samples were normalized to a control of fluorescein alone (0% quenching) and buffer alone (100% quenching).

Test [2] has as its system CTLA-4. Put plainly: CTLA-4 sandwich ELISA (BioLegend). The class given is binding. As to conditions: compared with ipilimumab. The protocol: Two anti-CTLA-4 scFv constructs (3GSWT with -GG(GGSGG)3GG- linker (SEQ ID NO: 6) and 5GSWT with -GG(GGSGG)5GG- linker (SEQ ID NO: 7)) were generated based on ipilimumab. The activity of each scFv antibody construct was compared via a sandwich ELISA assay (BioLegend; San Diego, CA), according to the manufacturer's instruction.
The triple mutation (VLF98G/VHV37A/VHW110G) was introduced into the 5GSWT scFv construct. The ability of JK43 to rescue the triple mutant was then tested. Briefly, the ability of the wild-type (5GSWT scFv construct) and triple mutant constructs to bind CTLA-4 was tested in the presence or absence of JK43 using the above sandwich ELISA assay, according to the manufacturer's instructions.
On the technique in general: In an ELISA, binding on a coated surface is turned into a signal by an enzyme label.

`c1ccc(COc2ccc3cc[nH]c3c2)cc1` [JK25, 6-phenylmethoxy-1H-indole] had a concentration for a half-maximal effect (EC50) in test [1] of 25 µM. On to `c1ccc(COc2ccc3cn[nH]c3c2)cc1` [JK43, 6-phenylmethoxy-1H-indazole], for which the response in test [1] was half-maximal at 16 µM (EC50).

On to “3GSWT: anti-CTLA-4 scFv based on ipilimumab with -GG(GGSGG)3GG- linker (SEQ ID NO: 22)”, for which the “Binding of CTLA-4 (FIG. 6B)” value in test [2] is “readily bind CTLA-4, albeit slightly less potently than ipilimumab”.
